Results as given in the kinase profiling compilation of Christmann-Franck et al. (2016).

Key:
Assay in all cases: radiometric filter-binding kinase assay
PAK4 (human) = PAK4 (human) (UniProt O96013); settings: ATP 5 µM
MELK (human) = MELK (human) (UniProt Q14680); settings: ATP 50 µM
SRPK1 (human) = SRPK1 (human) (UniProt Q96SB4); settings: ATP 50 µM
MKNK1 (human) = MKNK1 (human) (UniProt Q9BUB5); settings: ATP 50 µM
MAPK13 (human) = MAPK13 (human) (UniProt O15264); settings: ATP 5 µM
RPS6KA3 KD1 KD2 (human) = RPS6KA3 KD1 KD2 (human) (UniProt P51812); settings: ATP 100 µM
[1] = test system: SGK1 (human), O00141 [S422D]; settings: ATP 20 µM
LCK (mouse) = settings: ATP 50 µM, accession and sequence are those of the human protein
[2] = test system: RPS6KB1 (human), P23443 [T412E]; settings: ATP 100 µM
AURKB (human) = AURKB (human) (UniProt Q96GD4); settings: ATP 20 µM
CSNK1D (human) = CSNK1D (human) (UniProt P48730); settings: ATP 20 µM
SRC (human) = SRC (human) (UniProt P12931); settings: ATP 50 µM
PHKG1 (human) = PHKG1 (human) (UniProt Q16816); settings: ATP 50 µM
MAPK14 (human) = MAPK14 (human) (UniProt Q16539); settings: ATP 50 µM
TBK1 (human) = TBK1 (human) (UniProt Q9UHD2); settings: ATP 50 µM
YES1 (human) = YES1 (human) (UniProt P07947); settings: ATP 20 µM
IKBKB (human) = IKBKB (human) (UniProt O14920); settings: ATP 5 µM
CSK (human) = CSK (human) (UniProt P41240); settings: ATP 20 µM
PKN2 (human) = PKN2 (human) (UniProt Q16513); settings: ATP 5 µM
PAK7 (human) = PAK7 (human) (UniProt Q9P286); settings: ATP 20 µM
MAPK1 (human) = MAPK1 (human) (UniProt P28482)
FGFR1 (human) = FGFR1 (human) (UniProt P11362); settings: ATP 20 µM
IKBKE (human) = IKBKE (human) (UniProt Q14164); settings: ATP 50 µM
BTK (human) = BTK (human) (UniProt Q06187); settings: ATP 50 µM
DYRK2 (human) = DYRK2 (human) (UniProt Q92630); settings: ATP 50 µM
FLT1 (human) = FLT1 (human) (UniProt P17948)
ROCK2 (rat) = settings: ATP 20 µM, accession and sequence are those of the human protein

Chain of IKBKB (human) (O14920 whole entry, looked up): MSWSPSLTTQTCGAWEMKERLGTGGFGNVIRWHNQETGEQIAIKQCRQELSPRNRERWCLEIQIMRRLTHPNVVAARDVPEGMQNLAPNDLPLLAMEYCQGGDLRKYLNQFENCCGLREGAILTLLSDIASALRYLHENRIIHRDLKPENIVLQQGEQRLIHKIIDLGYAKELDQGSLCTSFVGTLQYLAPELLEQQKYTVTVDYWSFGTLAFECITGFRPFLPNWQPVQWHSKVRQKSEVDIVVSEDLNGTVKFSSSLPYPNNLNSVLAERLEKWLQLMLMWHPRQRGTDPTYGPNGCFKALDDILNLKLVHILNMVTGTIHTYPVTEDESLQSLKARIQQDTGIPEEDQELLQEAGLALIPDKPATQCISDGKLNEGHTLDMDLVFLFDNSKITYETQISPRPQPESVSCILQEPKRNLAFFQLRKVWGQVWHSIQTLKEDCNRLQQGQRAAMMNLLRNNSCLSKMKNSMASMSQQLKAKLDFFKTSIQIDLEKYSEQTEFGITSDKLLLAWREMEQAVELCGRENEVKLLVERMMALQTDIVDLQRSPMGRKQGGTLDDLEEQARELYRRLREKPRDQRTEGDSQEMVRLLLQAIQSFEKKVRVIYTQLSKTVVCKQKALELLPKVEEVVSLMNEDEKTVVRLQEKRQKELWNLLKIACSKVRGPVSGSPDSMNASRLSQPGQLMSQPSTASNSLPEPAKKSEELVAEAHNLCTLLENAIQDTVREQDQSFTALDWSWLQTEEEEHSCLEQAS
Chain of MAPK1 (human) (P28482 whole entry, looked up): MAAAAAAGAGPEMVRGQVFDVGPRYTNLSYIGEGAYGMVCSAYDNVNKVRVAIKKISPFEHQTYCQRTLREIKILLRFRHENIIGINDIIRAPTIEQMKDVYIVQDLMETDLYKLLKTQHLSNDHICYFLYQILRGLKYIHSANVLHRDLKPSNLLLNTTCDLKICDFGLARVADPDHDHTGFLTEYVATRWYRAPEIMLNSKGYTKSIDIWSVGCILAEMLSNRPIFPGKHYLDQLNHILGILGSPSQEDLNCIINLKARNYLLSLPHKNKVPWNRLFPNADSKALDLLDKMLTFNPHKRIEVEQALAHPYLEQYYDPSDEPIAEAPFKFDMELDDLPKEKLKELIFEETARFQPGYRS
Chain of FLT1 (human) (P17948 whole entry, looked up): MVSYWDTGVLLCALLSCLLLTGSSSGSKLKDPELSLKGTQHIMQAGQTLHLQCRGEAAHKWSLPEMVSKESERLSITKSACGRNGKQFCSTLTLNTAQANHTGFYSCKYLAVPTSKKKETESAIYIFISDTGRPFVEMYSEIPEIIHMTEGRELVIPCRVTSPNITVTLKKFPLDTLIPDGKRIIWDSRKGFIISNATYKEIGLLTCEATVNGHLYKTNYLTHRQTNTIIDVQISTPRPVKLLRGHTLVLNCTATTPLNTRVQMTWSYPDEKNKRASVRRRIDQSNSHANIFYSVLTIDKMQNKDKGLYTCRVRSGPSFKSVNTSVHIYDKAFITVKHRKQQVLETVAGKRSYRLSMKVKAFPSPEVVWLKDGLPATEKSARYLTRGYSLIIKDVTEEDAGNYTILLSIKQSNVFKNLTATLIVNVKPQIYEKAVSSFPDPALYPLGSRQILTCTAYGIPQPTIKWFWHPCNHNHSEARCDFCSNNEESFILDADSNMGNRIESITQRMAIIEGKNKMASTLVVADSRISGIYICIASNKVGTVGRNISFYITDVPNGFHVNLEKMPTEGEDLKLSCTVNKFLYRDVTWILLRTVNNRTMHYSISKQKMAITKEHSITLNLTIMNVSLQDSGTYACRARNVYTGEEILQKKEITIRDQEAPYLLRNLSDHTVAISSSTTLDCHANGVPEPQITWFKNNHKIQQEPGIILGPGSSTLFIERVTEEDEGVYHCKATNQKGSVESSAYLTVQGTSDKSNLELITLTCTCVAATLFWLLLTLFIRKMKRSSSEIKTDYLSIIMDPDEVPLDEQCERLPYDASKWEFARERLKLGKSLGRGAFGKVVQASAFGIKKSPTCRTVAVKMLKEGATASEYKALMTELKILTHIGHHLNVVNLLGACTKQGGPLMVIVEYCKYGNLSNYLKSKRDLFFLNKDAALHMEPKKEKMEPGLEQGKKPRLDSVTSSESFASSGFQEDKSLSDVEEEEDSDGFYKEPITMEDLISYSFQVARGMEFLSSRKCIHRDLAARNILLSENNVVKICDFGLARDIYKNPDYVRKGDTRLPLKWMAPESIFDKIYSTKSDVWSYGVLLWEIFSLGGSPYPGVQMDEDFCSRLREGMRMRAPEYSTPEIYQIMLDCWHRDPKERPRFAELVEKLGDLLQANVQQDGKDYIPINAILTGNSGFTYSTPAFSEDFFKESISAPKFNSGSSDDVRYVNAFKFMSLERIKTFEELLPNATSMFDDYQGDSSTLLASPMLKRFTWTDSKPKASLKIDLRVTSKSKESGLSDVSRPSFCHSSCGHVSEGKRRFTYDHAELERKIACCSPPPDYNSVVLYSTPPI
Chain of RPS6KB1 (human), P23443 [T412E] (P23443 whole entry T412E, looked up): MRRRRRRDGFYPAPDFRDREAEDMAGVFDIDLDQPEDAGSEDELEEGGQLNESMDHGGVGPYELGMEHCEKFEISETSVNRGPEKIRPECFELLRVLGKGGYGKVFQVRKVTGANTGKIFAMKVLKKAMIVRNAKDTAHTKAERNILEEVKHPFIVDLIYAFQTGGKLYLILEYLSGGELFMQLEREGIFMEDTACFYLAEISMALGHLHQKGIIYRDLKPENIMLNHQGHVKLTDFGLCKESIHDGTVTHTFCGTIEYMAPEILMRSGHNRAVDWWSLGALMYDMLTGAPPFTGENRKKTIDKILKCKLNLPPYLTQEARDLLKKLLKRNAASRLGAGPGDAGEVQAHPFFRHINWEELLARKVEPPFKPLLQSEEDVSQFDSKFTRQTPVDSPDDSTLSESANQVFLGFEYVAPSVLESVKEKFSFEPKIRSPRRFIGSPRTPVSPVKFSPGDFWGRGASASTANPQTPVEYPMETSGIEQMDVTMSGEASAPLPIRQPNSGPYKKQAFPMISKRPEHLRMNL
Chain of TBK1 (human) (Q9UHD2 whole entry, looked up): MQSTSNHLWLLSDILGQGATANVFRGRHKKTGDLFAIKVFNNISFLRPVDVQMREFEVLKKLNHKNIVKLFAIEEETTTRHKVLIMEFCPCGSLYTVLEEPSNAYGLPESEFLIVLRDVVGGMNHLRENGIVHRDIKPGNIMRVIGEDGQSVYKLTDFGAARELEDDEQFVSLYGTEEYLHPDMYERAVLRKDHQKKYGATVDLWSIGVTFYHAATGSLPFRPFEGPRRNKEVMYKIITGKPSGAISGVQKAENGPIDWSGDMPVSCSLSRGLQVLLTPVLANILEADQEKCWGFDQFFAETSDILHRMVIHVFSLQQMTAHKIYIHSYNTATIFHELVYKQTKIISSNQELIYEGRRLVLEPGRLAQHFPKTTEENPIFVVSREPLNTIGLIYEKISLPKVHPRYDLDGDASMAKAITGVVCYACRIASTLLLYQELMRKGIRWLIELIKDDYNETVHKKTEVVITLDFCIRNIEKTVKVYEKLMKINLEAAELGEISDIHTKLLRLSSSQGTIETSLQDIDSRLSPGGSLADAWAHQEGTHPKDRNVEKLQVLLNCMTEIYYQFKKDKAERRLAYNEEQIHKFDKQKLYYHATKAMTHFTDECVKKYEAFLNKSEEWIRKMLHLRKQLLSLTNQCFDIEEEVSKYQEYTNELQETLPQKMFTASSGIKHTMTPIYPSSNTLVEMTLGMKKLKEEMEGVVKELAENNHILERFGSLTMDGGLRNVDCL
Chain of SRPK1 (human) (Q96SB4 whole entry, looked up): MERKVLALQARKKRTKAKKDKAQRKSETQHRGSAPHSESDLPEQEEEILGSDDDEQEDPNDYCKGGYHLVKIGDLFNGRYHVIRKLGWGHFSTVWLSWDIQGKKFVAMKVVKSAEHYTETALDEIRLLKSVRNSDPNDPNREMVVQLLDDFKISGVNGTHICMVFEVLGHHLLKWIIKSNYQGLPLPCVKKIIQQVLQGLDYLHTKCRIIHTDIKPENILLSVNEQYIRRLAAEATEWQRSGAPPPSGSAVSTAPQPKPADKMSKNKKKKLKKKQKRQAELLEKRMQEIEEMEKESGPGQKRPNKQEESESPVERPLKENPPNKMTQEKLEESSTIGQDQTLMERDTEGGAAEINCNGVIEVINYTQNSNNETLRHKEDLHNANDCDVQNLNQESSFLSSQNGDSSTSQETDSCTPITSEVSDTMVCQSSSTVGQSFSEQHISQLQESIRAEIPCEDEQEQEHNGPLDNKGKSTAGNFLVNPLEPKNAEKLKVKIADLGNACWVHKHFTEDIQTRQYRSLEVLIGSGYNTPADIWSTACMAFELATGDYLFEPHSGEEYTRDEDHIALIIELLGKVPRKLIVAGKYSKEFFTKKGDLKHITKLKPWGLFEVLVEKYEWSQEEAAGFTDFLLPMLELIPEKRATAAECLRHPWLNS
Chain of PHKG1 (human) (Q16816 whole entry, looked up): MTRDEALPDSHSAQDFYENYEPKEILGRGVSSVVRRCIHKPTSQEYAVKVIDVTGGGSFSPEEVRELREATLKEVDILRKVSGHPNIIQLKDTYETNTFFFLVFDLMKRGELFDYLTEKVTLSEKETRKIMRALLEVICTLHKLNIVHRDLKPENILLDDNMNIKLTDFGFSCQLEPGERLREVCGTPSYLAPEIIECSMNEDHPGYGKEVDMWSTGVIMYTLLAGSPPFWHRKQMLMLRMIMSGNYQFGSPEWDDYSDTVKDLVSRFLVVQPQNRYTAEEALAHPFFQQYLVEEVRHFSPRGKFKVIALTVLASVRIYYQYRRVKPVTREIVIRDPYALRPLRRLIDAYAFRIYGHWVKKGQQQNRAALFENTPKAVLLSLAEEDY

CCc1cncnc1N1CCN(Cc2nc3cc(C(F)(F)F)ccc3[nH]2)CC1
residual activity (PAK4 (human); compound 0.1 µM): 93%
residual activity (PAK4 (human); compound 1.0 µM): 88%
residual activity (PAK4 (human); compound 10.0 µM): 88%
residual activity (MELK (human); compound 0.1 µM): 94%
residual activity (MELK (human); compound 1.0 µM): 101%
residual activity (MELK (human); compound 10.0 µM): 87%
residual activity (SRPK1 (human); compound 0.1 µM): 108%
residual activity (SRPK1 (human); compound 1.0 µM): 106%
residual activity (SRPK1 (human); compound 10.0 µM): 101%
residual activity (MKNK1 (human); compound 0.1 µM): 101%
residual activity (MKNK1 (human); compound 1.0 µM): 91%
residual activity (MKNK1 (human); compound 10.0 µM): 79%
residual activity (MAPK13 (human); compound 0.1 µM): 89%
residual activity (MAPK13 (human); compound 1.0 µM): 82%
residual activity (MAPK13 (human); compound 10.0 µM): 91%
IC50 (RPS6KA3 KD1 KD2 (human)): 9.2 µM
residual activity (RPS6KA3 KD1 KD2 (human); compound 0.1 µM): 100%
residual activity (RPS6KA3 KD1 KD2 (human); compound 1.0 µM): 86%
residual activity (RPS6KA3 KD1 KD2 (human); compound 10.0 µM): 45%
residual activity ([1]; compound 0.1 µM): 106%
residual activity ([1]; compound 1.0 µM): 74%
residual activity ([1]; compound 10.0 µM): 65%
residual activity (LCK (mouse); compound 0.1 µM): 91%
residual activity (LCK (mouse); compound 1.0 µM): 92%
residual activity (LCK (mouse); compound 10.0 µM): 88%
residual activity ([2]; compound 0.1 µM): 58%
residual activity ([2]; compound 1.0 µM): 23%
residual activity ([2]; compound 10.0 µM): 7%
residual activity (AURKB (human); compound 0.1 µM): 89%
residual activity (AURKB (human); compound 1.0 µM): 87%
residual activity (AURKB (human); compound 10.0 µM): 49%
residual activity (CSNK1D (human); compound 0.1 µM): 96%
residual activity (CSNK1D (human); compound 1.0 µM): 93%
residual activity (CSNK1D (human); compound 10.0 µM): 71%
residual activity (SRC (human); compound 0.1 µM): 103%
residual activity (SRC (human); compound 1.0 µM): 99%
residual activity (SRC (human); compound 10.0 µM): 92%
residual activity (PHKG1 (human); compound 0.1 µM): 100%
residual activity (PHKG1 (human); compound 1.0 µM): 96%
residual activity (PHKG1 (human); compound 10.0 µM): 104%
residual activity (MAPK14 (human); compound 0.1 µM): 86%
residual activity (MAPK14 (human); compound 1.0 µM): 79%
residual activity (MAPK14 (human); compound 10.0 µM): 86%
residual activity (TBK1 (human); compound 0.1 µM): 100%
residual activity (TBK1 (human); compound 1.0 µM): 89%
residual activity (TBK1 (human); compound 10.0 µM): 93%
residual activity (YES1 (human); compound 0.1 µM): 98%
residual activity (YES1 (human); compound 1.0 µM): 84%
residual activity (YES1 (human); compound 10.0 µM): 76%
residual activity (IKBKB (human); compound 0.1 µM): 195%
residual activity (IKBKB (human); compound 1.0 µM): 230%
residual activity (IKBKB (human); compound 10.0 µM): 192%
residual activity (CSK (human); compound 0.1 µM): 94%
residual activity (CSK (human); compound 1.0 µM): 93%
residual activity (CSK (human); compound 10.0 µM): 98%
residual activity (PKN2 (human); compound 0.1 µM): 95%
residual activity (PKN2 (human); compound 1.0 µM): 86%
residual activity (PKN2 (human); compound 10.0 µM): 84%
residual activity (PAK7 (human); compound 0.1 µM): 100%
residual activity (PAK7 (human); compound 1.0 µM): 88%
residual activity (PAK7 (human); compound 10.0 µM): 87%
residual activity (MAPK1 (human); compound 0.1 µM, ATP 5 µM): 88%
residual activity (MAPK1 (human); compound 0.1 µM, ATP 50 µM): 93%
residual activity (MAPK1 (human); compound 1.0 µM, ATP 5 µM): 96%
residual activity (MAPK1 (human); compound 1.0 µM, ATP 50 µM): 85%
residual activity (MAPK1 (human); compound 10.0 µM, ATP 5 µM): 77%
residual activity (MAPK1 (human); compound 10.0 µM, ATP 50 µM): 86%
residual activity (FGFR1 (human); compound 0.1 µM): 91%
residual activity (FGFR1 (human); compound 1.0 µM): 92%
residual activity (FGFR1 (human); compound 10.0 µM): 63%
residual activity (IKBKE (human); compound 0.1 µM): 103%
residual activity (IKBKE (human); compound 1.0 µM): 99%
residual activity (IKBKE (human); compound 10.0 µM): 96%
residual activity (BTK (human); compound 0.1 µM): 83%
residual activity (BTK (human); compound 1.0 µM): 87%
residual activity (BTK (human); compound 10.0 µM): 92%
residual activity (DYRK2 (human); compound 0.1 µM): 97%
residual activity (DYRK2 (human); compound 1.0 µM): 104%
residual activity (DYRK2 (human); compound 10.0 µM): 101%
residual activity (FLT1 (human); compound 0.1 µM, ATP 20 µM): 97%
residual activity (FLT1 (human); compound 0.1 µM, ATP 100 µM): 100%
residual activity (FLT1 (human); compound 1.0 µM, ATP 20 µM): 83%
residual activity (FLT1 (human); compound 1.0 µM, ATP 100 µM): 65%
residual activity (FLT1 (human); compound 10.0 µM, ATP 20 µM): 37%
residual activity (FLT1 (human); compound 10.0 µM, ATP 100 µM): 55%
residual activity (ROCK2 (rat); compound 0.1 µM): 98%
residual activity (ROCK2 (rat); compound 1.0 µM): 91%
residual activity (ROCK2 (rat); compound 10.0 µM): 58%
